Results taken from US4950662A, “2-oxa-isocephem compounds, compositions containing the same and processes for preparing the same” (Otsuka Pharmaceutical Co., Ltd., priority 1987, dated 1990).
≈ marks a conversion by molar mass, not a printed value. Read-outs that look alike come from different tables or passages of the source.

Columns and labels:
S. aureus FDA-209-p = assay: MIC by agar plate dilution method, S. aureus FDA-209-p; assay type: cell-based, Staphyloccocus aureus; settings: Staphylococcus aureus, FDA209, inoculum 1 x 10^6 cells/ml
Protocol: (§1) In order to investigate the in vitro activity of the under-mentioned compounds against various bacteria, the minimal inhibitory concentration (MIC) values were determined by the agar plate dilution method [see Chemotherapy, 22, 1123-1128 (1974)].
(§2) Each test inoculum was adjusted to I x 10^6 cells/ml (O.D., 600m : 0.07-0.16).

E. coli NIHJ = assay: MIC by agar plate dilution method, E. coli NIHJ; assay type: cell-based; settings: Escherichia coli, inoculum 1 x 10^6 cells/ml
Protocol: as §1, §2

E. coli No. 29 = assay: MIC by agar plate dilution method, E. coli No. 29; assay type: cell-based; settings: Escherichia coli, inoculum 1 x 10^6 cells/ml
Protocol: as §1, §2

K. pneumoniae NCTC-9632 = assay: MIC by agar plate dilution method, K. pneumoniae NCTC-9632; assay type: cell-based; settings: Klebsiella pneumoniae, NCTC9632
Protocol: as §1, §2

P. mirabilis ATCC-29906 = assay: MIC by agar plate dilution method, P. mirabilis ATCC-29906; assay type: cell-based; settings: Proteus mirabilis, ATCC29906, inoculum 1 x 10^6 cells/ml
Protocol: as §1, §2

M. morganii IIDKono = assay: MIC by agar plate dilution method, M. morganii IIDKono; assay type: cell-based; settings: Morganella morganii
Protocol: as §1, §2

S. marcescens ATCC-13880 = assay: MIC by agar plate dilution method, S. marcescens ATCC-13880; assay type: cell-based; settings: Serratia marcescens, ATCC13880, inoculum 1 x 10^6 cells/ml
Protocol: as §1, §2

P. mirabilis 1287 = assay: MIC by agar plate dilution method, P. mirabilis 1287; assay type: cell-based; settings: Proteus mirabilis, inoculum 1 x 10^6 cells/ml
Protocol: as §1, §2

M. morganii ATCC-25830 = assay: MIC by agar plate dilution method, M. morganii ATCC-25830; assay type: cell-based; settings: Morganella morganii, ATCC25830
Protocol: as §1, §2

S. marcescens IFO-12648 = assay: MIC by agar plate dilution method, S. marcescens IFO-12648; assay type: cell-based; settings: Serratia marcescens, IFO12648, inoculum 1 x 10^6 cells/ml
Protocol: as §1, §2

P. aeruginosa NCTC-10490 = assay: MIC by agar plate dilution method, P. aeruginosa NCTC-10490; assay type: cell-based; settings: Pseudomonas aeruginosa, NCTC10490, inoculum 1 x 10^6 cells/ml
Protocol: as §1, §2

[1] = K. pneumoniae NCTC-9632, inoculum 1 x 10^6 cells/ml, read-out: MIC
[2] = M. morganii IIDKono, inoculum 1 x 10^6 cells/ml, read-out: MIC
[3] = M. morganii ATCC-25830, inoculum 1 x 10^6 cells/ml, read-out: MIC

Structure (SMILES) | MIC (S. aureus FDA-209-p) | MIC (E. coli NIHJ) | MIC (E. coli No. 29) | MIC (K. pneumoniae NCTC-9632; [1]) | MIC (P. mirabilis ATCC-29906) | MIC (M. morganii IIDKono; [2]) | MIC (S. marcescens ATCC-13880) | MIC (K. pneumoniae NCTC-9632) | MIC (M. morganii IIDKono) | MIC (P. mirabilis 1287) | MIC (M. morganii ATCC-25830) | MIC (S. marcescens IFO-12648) | MIC (P. aeruginosa NCTC-10490) | MIC (M. morganii ATCC-25830; [3])
CO/N=C(\C(=O)N[C@@H]1C(=O)N2C(C(=O)O)=C(CN3CCCC3)OC[C@H]12)c1csc(N)n1 [No. 1, (6S,7S)-7-[2-(2-aminothiazol-4-yI)-2-methoxyiminoacetamide]-3-(1-pyrolidinyl)methyl-Δ^3-0-2-isocephem-4-carboxylic acid (syn isomer)] | 1.56 µg/mL (≈ 3.46 µM) | 0.1 µg/mL (≈ 0.222 µM) | 0.1 µg/mL (≈ 0.222 µM) | 0.2 µg/mL (≈ 0.444 µM) | 0.2 µg/mL (≈ 0.444 µM) | 0.2 µg/mL (≈ 0.444 µM) | 0.39 µg/mL (≈ 0.866 µM) |  |  |  |  |  |  | 
CO/N=C(\C(=O)N[C@@H]1C(=O)N2C(C(=O)[O-])=C(C[N+]3(C)CCCC3)OC[C@H]12)c1csc(N)n1 [No. 2, (6S,7S)-7-[2-(2-aminothiazol-4-yl)-2-methoxyiminoacetamide]-3-(I-methyl-1-pyrrolidinio)methyl-Δ^3-0-2-isocephem-4-carboxylate (syn isomer)] | 0.39 µg/mL (≈ 0.84 µM) | 0.05 µg/mL (≈ 0.108 µM) | 0.05 µg/mL (≈ 0.108 µM) |  | 0.1 µg/mL (≈ 0.215 µM) | 0.1 µg/mL (≈ 0.215 µM) | 0.1 µg/mL (≈ 0.215 µM) | 0.05 µg/mL (≈ 0.108 µM) |  |  |  |  |  | 
CO/N=C(\C(=O)N[C@@H]1C(=O)N2C(C(=O)O)=C(CN3CCc4ccccc4C3)OC[C@H]12)c1csc(N)n1 [No. 3, (6S,7S}-7-[2-(2-aminothiazol-4-yl)-2-methoxyiminoacetamide]-3-(1,2,3,4-tetrahydroisoquinolyn-2-yl}methyl-Δ^3-0-2-isocephem-4-carboxylic acid (syn isomer)] | 0.39 µg/mL (≈ 0.761 µM) | 0.05 µg/mL (≈ 0.0976 µM) | 0.05 µg/mL (≈ 0.0976 µM) | 0.1 µg/mL (≈ 0.195 µM) | 0.1 µg/mL (≈ 0.195 µM) | 0.2 µg/mL (≈ 0.39 µM) | 0.39 µg/mL (≈ 0.761 µM) |  |  |  |  |  |  | 
CO/N=C(\C(=O)N[C@@H]1C(=O)N2C(C(=O)[O-])=C(C[N+]3(C)CCc4ccccc4C3)OC[C@H]12)c1csc(N)n1 (stereo partly drawn) [No. 4, (6S,7S)-7-[2-(2-aminothiazol-4-Yl)-2-methoxyiminoacetamide]3-(2-methyl-2-1,2,3,4-tetrahydroisoquinoline-2-yl)methyl-Δ^3-0-2-isocephem-4-carboxylate (syn isomer)] | 0.78 µg/mL (≈ 1.48 µM) | 0.1 µg/mL (≈ 0.19 µM) | 0.05 µg/mL (≈ 0.095 µM) | 0.2 µg/mL (≈ 0.38 µM) | 0.2 µg/mL (≈ 0.38 µM) | 0.1 µg/mL (≈ 0.19 µM) | 0.2 µg/mL (≈ 0.38 µM) |  |  |  |  |  |  | 
CO/N=C(\C(=O)N[C@@H]1C(=O)N2C(C(=O)[O-])=C(C[n+]3ccccc3)OC[C@H]12)c1csc(N)n1 [No. 5, (6S,7S)-7-[2-(2-aminothiazol-4-yl)-2-methoxyiminoacetamide]-3-[(1-pyridinio)methyl]-Δ^3-0-2-isocephem-4-carboxylate (syn isomer)] | 0.39 µg/mL (≈ 0.851 µM) | 0.05 µg/mL (≈ 0.109 µM) | 0.05 µg/mL (≈ 0.109 µM) |  | 0.1 µg/mL (≈ 0.218 µM) |  | 0.1 µg/mL (≈ 0.218 µM) | 0.05 µg/mL (≈ 0.109 µM) | 0.05 µg/mL (≈ 0.109 µM) |  |  |  |  | 
CO/N=C(\C(=O)N[C@@H]1C(=O)N2C(C(=O)[O-])=C(C[n+]3ccc(SCC#N)cc3)OC[C@H]12)c1csc(N)n1 [No. 6, (6S,7S)-7-[2-(2-aminothiazol-4-yl}-2-methoxyiminoaoetamide]-3-[(4-cyanomethyIthio-1-pyridinio)methyl]-Δ^3-0-2-isocephem-4-carboxylate (syn isomer)] | 0.78 µg/mL (≈ 1.47 µM) | ≤ 0.025 µg/mL | ≤ 0.025 µg/mL | ≤ 0.025 µg/mL | ≤ 0.025 µg/mL | ≤ 0.025 µg/mL | 0.05 µg/mL (≈ 0.0944 µM) |  |  |  |  |  |  | 
CO/N=C(\C(=O)N[C@@H]1C(=O)N2C(C(=O)[O-])=C(C[n+]3ccc(-c4cc[nH]n4)cc3)OC[C@H]12)c1csc(N)n1 [No. 7, (6S,7S}-7-[2-[2-aminothiazol-4-Yl}-2-methoxyiminoacetamide]-3-[[4-(3-pyrazolyl)-1-pyridinio]methyl]-Δ^3-0-2-isocephem-4-carboxylate (syn isomer)] | 0.2 µg/mL (≈ 0.381 µM) | ≤ 0.025 µg/mL | ≤ 0.025 µg/mL | ≤ 0.025 µg/mL | ≤ 0.025 µg/mL | ≤ 0.025 µg/mL | 0.1 µg/mL (≈ 0.191 µM) |  |  |  |  |  |  | 
CC(C)O/N=C(\C(=O)N[C@@H]1C(=O)N2C(C(=O)[O-])=C(C[n+]3ccc(-c4cnco4)cc3)OC[C@H]12)c1csc(N)n1 [No. 8, (6S,7S)-7-[2-(2-aminothiazol-4-yl}-2-isopropyloxyiminoacetamide]-3-[[4-(5-oxazolyl)-1-pyridinio]methyl]-Δ^3-0-2-isocephem-4-carboxylate (syn isomer)] | 0.2 µg/mL (≈ 0.361 µM) | 0.05 µg/mL (≈ 0.0903 µM) | ≤ 0.05 µg/mL | ≤ 0.025 µg/mL |  |  |  |  |  | 0.05 µg/mL (≈ 0.0903 µM) | 0.05 µg/mL (≈ 0.0903 µM) | 0.2 µg/mL (≈ 0.361 µM) | 25 µg/mL (≈ 45.2 µM) | 
Nc1nc(/C(=N/OC2CCCC2)C(=O)N[C@@H]2C(=O)N3C(C(=O)[O-])=C(C[n+]4ccc(-c5cnco5)cc4)OC[C@H]23)cs1 [No. 9, (6S,7S}-7-[2-(2-aminothiazol-4-yl)-2-cyclopentyloxyiminoacetamide]-3-[[4-(5-oxazolyl)-1-pyridinio]methyl]-Δ^3-0-2-isocephem-4carboxylate (syn isomer)] | 0.1 µg/mL (≈ 0.173 µM) | 0.1 µg/mL (≈ 0.173 µM) | 0.05 µg/mL (≈ 0.0863 µM) | ≤ 0.025 µg/mL |  |  |  |  |  | 0.05 µg/mL (≈ 0.0863 µM) |  | 0.2 µg/mL (≈ 0.345 µM) | 12.5 µg/mL (≈ 21.6 µM) | 0.1 µg/mL (≈ 0.173 µM)
CC(C)O/N=C(\C(=O)N[C@@H]1C(=O)N2C(C(=O)[O-])=C(C[N+]3(C)CCCC3)OC[C@H]12)c1csc(N)n1 [No. 10, (6S,7S)-7-[2-(2-aminothiazol-4-yl)-2-(3-isopropyloxyiminoacetamide]-3-(1-methyl-1pyrrolidinio)methyl-^66 ^3-0-2-isocephem-4-carboxylate (syn isomer)] | 0.2 µg/mL (≈ 0.406 µM) | 0.1 µg/mL (≈ 0.203 µM) | 0.1 µg/mL (≈ 0.203 µM) | 0.05 µg/mL (≈ 0.102 µM) |  |  |  |  |  | 0.1 µg/mL (≈ 0.203 µM) |  | 0.39 µg/mL (≈ 0.792 µM) | 12.5 µg/mL (≈ 25.4 µM) | 0.1 µg/mL (≈ 0.203 µM)
C[N+]1(CC2=C(C(=O)[O-])N3C(=O)[C@@H](NC(=O)/C(=N\OC4CCCC4)c4csc(N)n4)[C@H]3CO2)CCCC1 [No. 11, (6S,7S)-7-[2-(2-aminothiazol-4-yl)-2-cyclopentyloxyiminoacetamide]-3-(I-methyl-1-pyrrolidinio]methyl-Δ^3-0-2-isocephem-4-carboxylate (syn isomer)] | 0.2 µg/mL (≈ 0.386 µM) | 0.1 µg/mL (≈ 0.193 µM) | 0.1 µg/mL (≈ 0.193 µM) | 0.1 µg/mL (≈ 0.193 µM) |  |  |  |  |  | 0.2 µg/mL (≈ 0.386 µM) |  | 0.39 µg/mL (≈ 0.752 µM) | 12.5 µg/mL (≈ 24.1 µM) | 0.2 µg/mL (≈ 0.386 µM)
CC(C)O/N=C(\C(=O)N[C@@H]1C(=O)N2C(C(=O)[O-])=C(C[n+]3cccc4c3CCC4)OC[C@H]12)c1csc(N)n1 [No. 12, (6S,7S}-7-[2-(2-amino&hiazol-4-Yl}-2-isopropyloxyiminoacetamide]-3-[(6,7-dihydro-5H-1-pyridinio)]methyl]-Δ^3-0-2-isocephem-4-carboxylate (syn isomer)] | 0.1 µg/mL (≈ 0.19 µM) | 0.05 µg/mL (≈ 0.095 µM) | ≤ 0.05 µg/mL | ≤ 0.025 µg/mL |  |  |  |  |  | 0.05 µg/mL (≈ 0.095 µM) |  | 0.39 µg/mL (≈ 0.741 µM) | 25 µg/mL (≈ 47.5 µM) | 0.2 µg/mL (≈ 0.38 µM)
C=CCO/N=C(\C(=O)N[C@@H]1C(=O)N2C(C(=O)[O-])=C(C[n+]3ccc(-c4cnco4)cc3)OC[C@H]12)c1csc(N)n1 [No. 13, (6S,7S}-7-[2-(2-aminothiazol-4-Yl)-2-allyloxyiminoacetamide]-3-[[4-[5-oxazolyl)-1-pyridinio]methyl]-Δ^3-0-2-isocephem-4-carboxylate (syn isomer)] | 0.1 µg/mL (≈ 0.181 µM) | 0.05 µg/mL (≈ 0.0907 µM) | 0.05 µg/mL (≈ 0.0907 µM) | ≤ 0.025 µg/mL |  |  |  |  |  | 0.1 µg/mL (≈ 0.181 µM) |  | 0.2 µg/mL (≈ 0.363 µM) | 12.5 µg/mL (≈ 22.7 µM) | 0.2 µg/mL (≈ 0.363 µM)
